Measurements taken from paper PMC7156612, “Olinciguat, an Oral sGC Stimulator, Exhibits Diverse Pharmacology Across Preclinical Models of Cardiovascular, Metabolic, Renal, and Inflammatory Disease” (Frontiers in Pharmacology, 2020).
Where two headings read alike, the source gives them in different places.

What was measured:
Type in all cases: in vivo
[1] = Pharmacokinetics in Sprague-Dawley rats; conditions: rat, plasma; for bioavailability / Cmax / Tmax / half-life: po; for bioavailability: 1 mg/kg; for Cmax / Tmax / half-life: p.o. 1 mg/kg
Procedure: Male (n=12, 2 groups of 6) and female (n=12, 2 groups of 6) Sprague-Dawley rats (275–300 g) with indwelling jugular vein cannulae were fasted overnight prior to dosing. Animals were dosed either intravenously (i.v.) via bolus injection through a percutaneous catheter into a lateral tail vein or orally (p.o.) via gavage. Olinciguat was formulated in 60% polyethylene glycol (PEG) 400/40% water at 0.3 mg/ml (0.3 mg/kg) for i.v. dosing, and at 1 mg/ml (1 mg/kg) in 100% PEG 400 for p.o. dosing. Chow was returned to animals 4 h postdose.
Blood from i.v. and p.o. dosed rats was collected at 16 timepoints (2 groups of rats, 8 timepoints per group) over 24 h. Samples were collected into potassium ethylenediamine tetraacetic acid (K2EDTA) tubes, centrifuged (3,500 rpm for 10 min) to yield plasma. In the pharmacokinetic studies and in all in vivo studies, olinciguat plasma concentrations were determined by LC-MS/MS. Pharmacokinetic (PK) parameters were calculated by noncompartmental analysis using sparse sampling in Phoenix® WinNonLin® v.6.3 (Certara, Princeton, NJ).

[2] = Dahl salt-sensitive rat model; conditions: male, Dahl salt-sensitive (DSS), rat, plasma, oral; DSS rats, 10 mg/kg/day in chow, week 6, n=6; read-out: average total plasma concentration of olinciguat
Procedure: (§1) The Dataquest A.R.T.™ acquisition and analysis system (Data Sciences International [DSI], St. Paul, MN) was employed to monitor and analyze hemodynamic data from conscious, freely moving rats surgically implanted with a telemetry pressure transmitter (PA-C40). Telemetry transmitter implantation was performed on rats under sterile conditions. Rats were anesthetized with isoflurane and body temperature was maintained with a heating pad during surgery. A laparotomy was performed to expose the abdominal aorta. The catheter tip of the telemetry transmitter was inserted into the abdominal aorta and secured with a 5-0 silk suture (Ethicon, Inc., Somerville, NJ). The abdominal incision was closed with uninterrupted suture (4-0 silk, Ethicon, Inc., Somerville, NJ) and the telemetry transmitter was placed in the abdominal cavity and secured to the abdominal wall. Approximately 100 µl of 0.25% marcaine was applied directly to the closed abdominal wall, and the skin was then closed with suture (4-0 Vicryl® absorbable, Ethicon, Inc., Somerville, NJ). Buprenorphine (0.05 mg/kg/day, subcutaneous [s.c.]) was administered immediately after the surgery for postoperative pain relief. After recovery from anesthesia, rats were returned to their home cages, placed on DSI receivers, and allowed a 5- to 14-day recovery period. Arterial hemodynamics were measured continuously and recorded throughout the study. For acute studies, analysis was based on hourly averages, for chronic studies, analysis was based on daily or weekly averages.
(§2) Male DSS rats (n = 48, 230–300 g) were implanted with telemetry transmitters as described above. During the 2-week pretreatment period and the 6-week treatment period, rats were either fed a NS diet (0.3% NaCl, n=8) or a HS diet (8% NaCl). During the treatment period, one group of HS rats was continued on HS diet (HS, n=8) and a second group of HS rats was switched to a HS diet containing olinciguat targeting the dose equivalent of 10 mg/kg/day (OLI10, n=8). At the end of the 6-week treatment period, body weight was measured, urine was collected over a 24-h period using a metabolic cage for urinalysis, and blood samples were collected for plasma biomarker analyses. At the end of the study, rats were anesthetized, and whole bodies were perfused via the left ventricle with heparinized PBS (1 U/ml heparin) containing IBMX (1mM). Organs were collected and weighed. All organ weights were normalized to body weight. After weighing the heart, the right ventricular free wall was removed, and the left ventricular free wall plus left ventricular septum (LV+S) were weighed.
(§3) In the DSS model, daily MAP (24-h average) data were analyzed using two-way ANOVA, with time and treatment group as independent variables. For each day, groups were compared to the HS group with a Dunnett's post-hoc test. Body weight, LV+S, cardiac weight, lung weight, kidney weight, plasma NT-proBNP, and 24-h urine protein excretion (UPE) data were analyzed by one-way ANOVA, followed by Dunnett's multiple comparison to the HS group.

[3] = test system: Dahl salt-sensitive (DSS) rats on high salt diet; experiment: Dahl salt-sensitive rat model; conditions: for MAP at the end of the treatment period: 6 weeks; for LV+S weight normalized to body weight: end of 6-week treatment
Procedure: as §1, §2, §3

[4] = Mouse TNFα-induced model of vascular inflammation; conditions: male, C57BL/6, mouse, plasma, po; mice, 10 mg/kg p.o., at euthanasia; read-out: plasma concentration of olinciguat
Procedure: (§4) Male C57BL/6 mice (n=30, 22 g, 8 weeks) were studied. The TNFα/olinciguat group of mice (n=10) was administered 10 mg/kg olinciguat p.o., formulated in 0.1 ml 100% PEG, followed byintraperitoneal (i.p.) injection of 50 ng of mouse TNFα formulated in 0.5 ml pyrogen-free 0.9% NaCl solution one hour later. The TNFα/vehicle control group of mice (n=10) was treated with p.o. vehicle, followed by i.p. injection of 50 ng of mouse TNFα after one h. A naïve, non-treated control group of mice (n=10) was included in the study. […] Plasma levels of olinciguat were determined by LCMS. Plasma samples were diluted 1:300 for determination of sL-selectin, sP-selectin, sE-selectin, and sICAM-1 by ELISA.
(§5) In the vascular inflammation model, data were analyzed by one-way ANOVA, followed by Dunnett's multiple comparison to the TNFα-vehicle control.

[5] = test system: C57BL/6 mice treated with TNFα; experiment: Mouse TNFα-induced model of vascular inflammation; conditions: 10 mg/kg, total plasma concentration x 1.7% free
Procedure: as §4, §5

For `NC(=O)[C@](O)(CNc1nc(-c2cc(-c3ccon3)n(Cc3ccccc3F)n2)ncc1F)C(F)(F)F` [olinciguat, (R)-3,3,3-trifluoro-2-(((5-fluoro-2-(1-(2-fluorobenzyl)-5-(isoxazol-3-yl)-1H-pyrazol-3-yl)pyrimidin-4-yl)amino)methyl)-2-hydroxypropanamide], the Vd ([1]; both sexes, Sprague-Dawley, intravenous, 0.3 mg/kg, male and female rats, mean, read-out: mean pharmacokinetic volume of distribution) was 1 L/kg, the bioavailability ([1]; both sexes, Sprague-Dawley, rats, sexes not separated (discussion), read-out: oral bioavailability (rats, overall)) was 40% and the clearance ([1]; iv, female Sprague Dawley rats, i.v. 0.3 mg/kg) was 5.6 mL/min/kg. It also gave a Vd ([1]; iv, female Sprague Dawley rats, i.v. 0.3 mg/kg, read-out: Vss) of 0.9 L/kg, a clearance ([1]; iv, male Sprague Dawley rats, i.v. 0.3 mg/kg) of 11.3 mL/min/kg and a Vd ([1]; iv, male Sprague Dawley rats, i.v. 0.3 mg/kg, read-out: Vss) of 1.1 L/kg. The bioavailability ([1]; female Sprague Dawley rats, read-out: Oral bioavailability) was 45%, the bioavailability ([1]; male Sprague Dawley rats, read-out: Oral bioavailability) was 36% and the Cmax ([1]; female Sprague Dawley rats) was 198 ng/mL. For the same molecule, the Tmax ([1]; female Sprague Dawley rats) was 3 h, the half-life ([1]; female Sprague Dawley rats) was 3.9 h and the Cmax ([1]; male Sprague Dawley rats) was 96.4 ng/mL. For the same molecule, the Tmax ([1]; male Sprague Dawley rats) was 1 h, the half-life ([1]; male Sprague Dawley rats) was 3.5 h and the concentration at 6 weeks [2] was 25.4 ± 3.8 nM. The “Olinciguat concentration (free)” value ([3]; 10 mg/kg/day, total plasma concentration x 1.0% free) was 0.22–0.29 nM^e, the “MAP at the end of the treatment period” value ([3]; HS diet, olinciguat 10 mg/kg/day in chow) was 192 mmHg and the “MAP at the end of the treatment period” value ([3]; HS diet, olinciguat 10 mg/kg/day in chow, listed as OLI10) was 192 ± 7 mmHg. The “MAP on day 16 (after treatment initiation)” value ([3]; HS diet, olinciguat 10 mg/kg/day in chow, 161 ± 7 mmHg on day 14 before treatment) was 146 ± 7 mmHg, the “lung weight, fold higher than in NS” value ([3]; HS diet, olinciguat 10 mg/kg/day vs NS control) was 1.2 fold and the “lung weight normalized to body weight” value ([3]; HS diet, olinciguat 10 mg/kg/day, HS 8.9 ± 1.7) was “↓ lung weight”. For the same molecule, the “lung weight normalized to body weight” value ([3]; HS diet, olinciguat 10 mg/kg/day, HS 8.9 ± 1.7, listed as OLI10) was 4.0 ± 0.1 g/kg BW, the normalized kidney weight ([3]; HS diet, olinciguat 10 mg/kg/day, HS 10.9 ± 0.5, not significantly different) was 10.2 ± 0.23 g/kg BW and the “24-h urine protein excretion (UPE)” value ([3]; HS diet, olinciguat 10 mg/kg/day, HS 643 ± 60, not statistically significant) was 599 ± 70 mg. For the same molecule, the “average body weight at the end of the treatment period” value ([3]; HS diet, olinciguat 10 mg/kg/day, HS control 364 ± 19) was 412 ± 11 g, the “cardiac weight vs HS” value ([3]; HS diet, olinciguat 10 mg/kg/day, data not shown) was “lower in OLI10 than HS” and the “LV+S weight normalized to body weight” value ([3]; HS diet, olinciguat 10 mg/kg/day, HS 4.1 ± 0.2) was “↓ cardiac hypertrophy”. For the same molecule, the “LV+S weight normalized to body weight” value ([3]; HS diet, olinciguat 10 mg/kg/day, HS 4.1 ± 0.2, listed as OLI10) was 3.3 ± 0.1 g/kg BW, the “difference in MAP between olinciguat-treated and HS disease control at end of treatment period” value ([3]; HS diet, olinciguat 10 mg/kg/day, lower than HS, listed as OLI10) was 15 mmHg and the “plasma NT-proBNP” value ([3]; HS diet, olinciguat 10 mg/kg/day, n=6, HS 2,833 ± 416) was “↓ NT-proBNP”. The “plasma NT-proBNP” value ([3]; HS diet, olinciguat 10 mg/kg/day, n=6, HS 2,833 ± 416, listed as OLI10) was 1,235 ± 301 pg/ml, the “NT-proBNP, percent lower than untreated controls” value ([3]; olinciguat 10 mg/kg/day) was 56% and the concentration at 5 h [4] was 544 ± 61 nM. For the same molecule, the “Olinciguat concentration (free)” value [5] was 8.2–10.2 nM^f.
